The structures appear in SMILES notation. Calls of active or inactive are those of the source. The rule behind the calls is not given here.

For assay [1], the system named is CHO. The assay is described as follows: Inhibition of gamma-secretase-mediated cleavage of human APP expressed in CHO cells assessed as reduction in amyloid beta42 production after 24 hrs by double sandwich ELISA. It counts as cell-based. A general note: In an ELISA, binding on a coated surface is turned into a signal by an enzyme label.
Assay [2] can be described thus: Inhibition of gamma-secretase-mediated cleavage of human APP expressed in CHO cells assessed as reduction in amyloid beta40 production after 24 hrs by double sandwich ELISA. It counts as cell-based.
Assay [3] can be described thus: Inhibition of gamma-secretase assessed as increase in beta-C-terminal fragment level after 24 hrs by double sandwich ELISA.
Assay [4] can be described thus: Inhibition of gamma-secretase assessed as effect on APP level after 24 hrs by double sandwich ELISA.

Regarding `CCC(CC)C(NS(=O)(=O)c1ccc(Cl)s1)c1ccnn1S(=O)(=O)c1ccc(C)cc1` (centres undefined), the result in assay [1], in assay [3] and in assay [4] was Active. Also, the EC50 in assay [2] was 1680 nM.
Take `CC(C)C(NS(=O)(=O)c1ccc(Cl)s1)c1ccnn1-c1ccccc1` (centres undefined): the result in assay [1], in assay [3] and in assay [4] was Active. Moreover, in assay [2], the EC50 was 1120 nM.
On to `Cc1ccc(-n2nccc2[C@H](NS(=O)(=O)c2ccc(Cl)s2)C(C)C)cc1`, for which the result in assay [1], in assay [3] and in assay [4] was Active. Also, the EC50 in assay [2] is over 15000 nM.
With `COc1ccc(Cn2cccc2C(NS(=O)(=O)c2ccc(Cl)s2)C(C)C)cc1` (centres undefined), the outcome in assay [1], in assay [3] and in assay [4] was Active. Moreover, the EC50 in assay [2] is 13300 nM.
`CCC(CC)C(NS(=O)(=O)c1ccc(Cl)s1)c1ncnn1Cc1ccc(C)cc1` (centres undefined): the outcome in assay [1], in assay [3] and in assay [4] was Active. Moreover, the EC50 in assay [2] is 880 nM.
Turning to `CCC(CC)C(NS(=O)(=O)c1ccc(Cl)s1)c1ncnn1Cc1ccccc1` (centres undefined), the outcome in assay [1], in assay [3] and in assay [4] was Active. In addition, the concentration giving a half-maximal response (EC50) in assay [2] amounted to 1010 nM.
`COc1ccc(Cn2nccc2C(NS(=O)(=O)c2ccc(Cl)s2)C(C)C)cc1` (centres undefined): the result in assay [1], in assay [3] and in assay [4] was Active. In assay [2], the concentration giving a half-maximal response (EC50) was 410 nM.
As for `CCC(CC)C(NS(=O)(=O)c1ccc(Cl)s1)c1nccn1Cc1ccc(OC)cc1` (centres undefined), the outcome in assay [1], in assay [3] and in assay [4] was Active. Also, the EC50 in assay [2] worked out at 50600 nM.
As to `CCC(CC)C(NS(=O)(=O)c1ccc(Cl)s1)c1nccn1Cc1ccccc1` (centres undefined), the outcome in assay [1], in assay [3] and in assay [4] was Active. For the same compound, in assay [2], the EC50 came to 19400 nM.
Turning to `CCC(CC)C(NS(=O)(=O)c1ccc(Cl)s1)c1ccnn1-c1ccc(OC)cc1` (centres undefined), the outcome in assay [1], in assay [3] and in assay [4] was Active. In addition, the EC50 in assay [2] was 1560 nM.
For `CCCC(NS(=O)(=O)c1ccc(Cl)s1)c1ccnn1Cc1ccc(OC)cc1` (centres undefined), the result in assay [1], in assay [3] and in assay [4] was Active. The EC50 in assay [2] amounted to 930 nM.
Take `CCC(CC)C(NS(=O)(=O)c1ccc(Cl)s1)c1ncnn1Cc1ccc(OC)cc1` (centres undefined): the outcome in assay [1], in assay [3] and in assay [4] was Active. Besides, the EC50 in assay [2] came to 940 nM.
With `CCC(CC)C(NS(=O)(=O)c1ccc(Cl)s1)c1ccnn1-c1ccccc1` (centres undefined), the result in assay [1], in assay [3] and in assay [4] was Active. In addition, the EC50 in assay [2] was determined as 1620 nM.
As for `CCC(CC)C(NS(=O)(=O)c1ccc(Cl)c(Cl)c1)c1ccnn1-c1ccccc1` (centres undefined), the outcome in assay [1], in assay [3] and in assay [4] was Active. For the same compound, the EC50 in assay [2] came to 25500 nM.
With `CCC(CC)C(NS(=O)(=O)c1ccc(Cl)s1)c1ccnn1Cc1ccc(O)cc1` (centres undefined), the outcome in assay [1], in assay [3] and in assay [4] was Active. Also, in assay [2], the EC50 turned out to be 140 nM.
As to `CC(C)[C@@H](NS(=O)(=O)c1ccc(Cl)s1)c1ccnn1-c1ccc(F)cc1`, the result in assay [1], in assay [3] and in assay [4] was Active. Also, in assay [2], the EC50 is over 15000 nM.

By EC50 is commonly meant the concentration giving half of the maximal effect.

These data come from ChEMBL document CHEMBL1154043, “Synthesis and structure-activity relationship of a novel series of heterocyclic sulfonamide gamma-secretase inhibitors” (Bioorg Med Chem, 2009).
